Experimental data taken from patent US20100286035A1, “NEUROMEDIN U DERIVATIVE” (Takeda Pharmaceutical Company Limited, priority 2007, published 2010).
Where no end group is shown, it is not given here.

Experiments:
Type in all cases: in vivo
male C57BL/6J mice [1] = experiment: Test Example 1: antifeedant activity of NMU-23 and NMS in mice; conditions: 3 mg/kg intraperitoneally, mice fasted for 16 hours
Protocol: 7 weeks old male C57BL/6J mice (mean bodyweight: 24 g) delivered from the Japan Charles River Company were raised for 5 to 7 days after the delivery under a feeding environment regulated for temperature and humidity with lighting time (25° C., 12 hours of lighted period and 12 hours of dark period, light was lit at 8:00). Four animals were placed in one cage. After handling the mice for 5 to 8 days, the animals were housed singly in each cage where a floor mesh was spread and acclimated by intraperitoneal injection for 3 days prior to the administration of a peptide. The animals acclimated were fasted for 16 hours from 18:00 prior to the administration of the peptide. However, the animals had free access to drinking water. Subsequently, a peptide, namely 720 μg/ml rat NMU-23 (peptide Institution) [Sequence No. 5], or rat NMS (Bachem) [Sequence No. 9] dissolved in physiological saline solution was intraperitoneally injected to the mice such that the dosage of each solution (100 μl) was 3 mg/kg at 10:00 on the day of administration. […] Further, the residual amount of the feed was measured after 3, 6 and 24 hours. The food intakes at 3, 6 and 24 hours were calculated by subtracting the residual amount of the feed after 3, 6 and 24 hours from the amount of the feed that was originally given. […]

male C57BL/6J mice [2] = experiment: Test Example 8: antifeedant activity of NMU-8 PEG conjugate in mice; conditions: 100 nmol/kg intraperitoneally, mice fasted for 16 hours (FIG. 9)
Protocol: (§1) 7 weeks old male C57BL/6J mice delivered from the Japan Charles River Company were raised for 5 to 10 days after delivery under a feeding environment regulated for temperature and humidity with lighting time (25° C., 12 hours of lighted period and 12 hours of dark period, light was lit at 8:00). Four animals were placed in one cage. After handling the mice for 5 to 8 days, the animals were housed singly in each cage where a floor mesh was spread and acclimated by intraperitoneal injection for 3 days prior to the administration of a peptide (conjugate). The animals acclimated were fasted for 16 hours from 18:00 prior to the administration of the peptide (conjugate). However, the animals has free access to drinking water). Subsequently, a peptide (conjugate) dissolved in physiological saline solution was intraperitoneally injected to the mice, namely 24.3 μM PEG30k (ACP)-NMU-8 [14], 24.3 μM (PEG20k)2 (ACP)-NMU-8 [29], 24.3 μM PEG30k (AB)-NMU-8 [11], 24.3 μM (PEG20k)2 (AB)-NMU-8 [26], 24.3 μM PEG30k (NH-AB)-NMU-8 [42], 24.3 μM PEG30k (SMCC)-NMU-8 [4] were administered intraperitoneally at 10:00 on the day of administration to the mice such that the dosage of each solution (100 μl) was 100 nmol/kg. After the injection of the peptide (conjugate) solution, MF feed which had been weighed (Oriental Yeast Industry) was given freely to the mice. Further, the residual amount of the feed was measured after 3, 6 and 24 hours. The food intakes at 3, 6 and 24 hours were calculated by subtracting the residual amount of the feed after 3, 6 and 24 hours from the amount of the feed that was originally given.

male C57BL/6J mice [3] = experiment: Test Example 7: antifeedant activity of NMU-8 PEG conjugate in mice; conditions: 10 nmol/kg intraperitoneally, mice fasted for 16 hours (FIG. 8)
Protocol: 7 weeks old male C57BL/6J mice delivered from the Japan Charles River Company were raised for 5 to 10 days after delivery under a feeding environment regulated for temperature and humidity with lighting time (25° C., 12 hours of lighted period and 12 hours of dark period, light was lit at 8:00). Four animals were placed in one cage. After handling the mice for 5 to 8 days, the animals were housed singly in each cage where a floor mesh was spread and acclimated by intraperitoneal injection using a syringe (micro injector, syringe for insulin administration, Terumo) for 3 days prior to the administration of a peptide (conjugate). The animals acclimated were fasted for 16 hours from 18:00 prior to the administration of the peptide (conjugate). However, the animals were free access to drinking water). Subsequently, a peptide dissolved in physiological saline solution (conjugate) namely 2.51 μM PEG30k-NMU-8 [5], 2.51 μM PEG30k-Cys-NMU-8 [6], 2.51 μM PEG30k-(Traut)-NMU-8 [7], 2.51 μM PEG30k (SMCC)-NMU-8 [4] were administered intraperitoneally at 10:00 on the day of administration to the mice such that the dosage of each solution (100 μl) was 10 nmol/kg. After the injection of the peptide (conjugate) solution, MF feed which had been weighed (Oriental Yeast Industry) was given freely to the mice. Further, the residual amount of the feed was measured after 3, 6 and 24 hours. The food intakes at 3, 6 and 24 hours were calculated by subtracting the residual amount of the feed after 3, 6 and 24 hours from the amount of the feed that was originally given.

male C57BL/6J mice [4] = experiment: Test Example 6: antifeedant activity of NMU-8 PEG conjugate in mice; conditions: 100 nmol/kg intraperitoneally, mice fasted for 16 hours (FIG. 7)
Protocol: as §1, with “had” for “has”, “Subsequently, a peptide (conjugate) dissolved in physiological saline solution was intraperitoneally injected to the mice, namely 24.3 μM PEG30k (ACP)-NMU-8 [14], 24.3 μM (PEG20k)2 (ACP)-NMU-8 [29], 24.3 μM PEG30k (AB)-NMU-8 [11], 24.3 μM (PEG20k)2 (AB)-NMU-8 [26], 24.3 μM PEG30k (NH-AB)-NMU-8 [42], 24.3 μM PEG30k (SMCC)-NMU-8 [4] were administered intraperitoneally at 10:00 on the day of administration to the mice such that the dosage of each solution (100 μl) was 100 nmol/kg.” left out

male C57BL/6J mice [5] = experiment: Test Example 4: antifeedant activity of NMU-8 PEG conjugate in mice; conditions: 100 nmol/kg intraperitoneally, mice fasted for 16 hours (FIG. 5)
Protocol: 7 weeks old male C57BL/6J mice delivered from the Japan Charles River Company were raised for 5 to 10 days after delivery under a feeding environment regulated for temperature and humidity with lighting time (25° C., 12 hours of lighted period and 12 hours of dark period, light was lit at 8:00). Four animals were placed in one cage. After handling the mice for 5 to 8 days, the animals were housed singly in each cage where a floor mesh was spread and acclimated by intraperitoneal injection for 3 days prior to the administration of a peptide (conjugate). The animals acclimated were fasted for 16 hours from 18:00 prior to the administration of the peptide (conjugate). However, the animals had free access to drinking water). Subsequently, a peptide dissolved in physiological saline solution (conjugate) was intraperitoneally injected into the mice, namely 24.2 μM PEG30k (GMBS)-NMU-8 [1], 24.2 μM PEG30k (EMCS)-NMU-8 [2], 24.2 μM PEG30k (KMUS)-NMU-8 [3], 24.2 μM PEG30k (SMCC)-NMU-8 [4] were administered intraperitoneally at 10:00 on the day of administration to the mice such that the dosage of each solution (100 μl) was 100 nmol/kg. After the injection of the peptide (conjugate) solution, MF feed which had been weighed (Oriental Yeast Industry) was given freely to the mice. Further, the residual amount of the feed was measured after 3, 6 and 24 hours. The food intakes at 3, 6 and 24 hours were calculated by subtracting the residual amount of the feed after 3, 6 and 24 hours from the amount of the feed that was originally given.

male C57BL/6J mice [6] = experiment: Test Example 5: antifeedant activity of NMU-8 PEG conjugate in mice; conditions: 10 nmol/kg intraperitoneally, mice fasted for 16 hours (FIG. 6)
Protocol: 7 weeks old male C57BL/6J mice delivered from the Japan Charles River Company were raised for 5 to 10 days after delivery under a feeding environment regulated for temperature and humidity with lighting time (25° C., 12 hours of lighted period and 12 hours of dark period, light was lit at 8:00). Four animals were placed in one cage. After handling the mice for 5 to 8 days, the animals were housed singly in each cage where a floor mesh was spread and acclimated by intraperitoneal injection using a syringe (micro injector, syringe for insulin administration, Terumo) for 3 days prior to the administration of a peptide (conjugate). The animals acclimated were fasted for 16 hours from 18:00 prior to the administration of the peptide (conjugate). However, the animals had free access to drinking water). Subsequently, a peptide dissolved in physiological saline solution (conjugate) namely 2.39 μM PEG30k (GMBS)-NMU-8 [1], 2.39 μM PEG30k (EMCS)-NMU-8 [2], 2.39 μM PEG30k (KMUS)-NMU-8 [3], 2.39 μM PEG30k (SMCC)-NMU-8 [4] were administered intraperitoneally at 10:00 on the day of administration to the mice such that the dosage of each solution (100 μl) was 10 nmol/kg. After the injection of the peptide (conjugate) solution, MF feed which had been weighed (Oriental Yeast Industry) was given freely to the mice. Further, the residual amount of the feed was measured after 3, 6 and 24 hours. The food intakes at 3, 6 and 24 hours were calculated by subtracting the residual amount of the feed after 3, 6 and 24 hours from the amount of the feed that was originally given.

male C57BL/6J mice [7] = experiment: Test Example 2: antifeedant activity of NMU-23 and NMU-8 in mice
Protocol: 7 weeks old male C57BL/6J mice (mean bodyweight: 25 g) delivered from the Japan Charles River Company were raised for 5 to 10 days after delivery under a feeding environment regulated for temperature and humidity with lighting time (25° C., 12 hours of lighted period and 12 hours of dark period, light was lit at 8:00). Four animals were placed in one cage. After handling the mice for 5 to 8 days, the animals were housed singly in each cage where a floor mesh was spread and acclimated by intraperitoneal injection for 3 days prior to the administration of a peptide. The animals acclimated were fasted for 16 hours from 18:00 prior to the administration of the peptide. However, the animals had free access to drinking water. […] After the injection of the peptide solution, MF feed which had been weighed (Oriental Yeast Industry) was given freely to the mice. Further, the residual amount of the feed was measured after 3, 6 and 24 hours. The food intakes at 3, 6 and 24 hours were calculated by subtracting the residual amount of the feed after 3, 6 and 24 hours from the amount of the feed that was originally given.
[In FIG. 2, * and ** tested by T-tests indicated to be lower at the levels of significance of 0.05 and 0.01 (P<0.05 and P<0.01]

Substance | intakes of the feed at 3, 6 and 24 hours (male C57BL/6J mice [2]) | intakes of the feed at 3, 6 and 24 hours (male C57BL/6J mice [3]) | intakes of the feed at 3, 6 and 24 hours (male C57BL/6J mice [4]) | intakes of the feed at 3, 6 and 24 hours (male C57BL/6J mice [5]) | intakes of the feed at 3, 6 and 24 hours (male C57BL/6J mice [6]) | also measured
rat NMS: rat neuromedin S (Bachem) [Sequence No. 9] (LPRLLHTDSRMATIDFPKKDPTTSLGRPFFLFRPRN-NH2; listed as Rattus norvegicus) |  |  |  |  |  | intakes of the feed at 3, 6 and 24 hours (male C57BL/6J mice [1]): significantly suppressed
(PEG20k)2(AB)-NMU-8 | significantly suppressed |  |  |  |  | 
PEG30k-Cys-NMU-8 (C(PEG 30 kDa)FFLFRPRN-NH2) |  | significantly suppressed | significantly suppressed |  |  | 
PEG30k(Traut)-NMU-8 |  | significantly suppressed | significantly suppressed |  |  | 
PEG30k(GMBS)-NMU-8 |  |  |  | significantly suppressed | significantly suppressed | 
PEG30k(AB)-NMU-8 | significantly suppressed |  |  |  |  | 
PEG30k-NMU-8 |  | significantly suppressed | significantly suppressed |  |  | 
(PEG20k)2(ACP)-NMU-8 | significantly suppressed |  |  |  |  | 
Tyr-Lys-Val-Asn-Glu-Tyr-Gln-Gly-Pro-Val-Ala-Pro-Ser-Gly-Gly-Phe-Phe-Leu-Phe-Arg-Pro-Arg-Asn-NH2 (YKVNEYQGPVAPSGGFFLFRPRN-NH2; listed as Rattus norvegicus) [rat NMU-23] |  |  |  |  |  | intakes of the feed at 3, 6 and 24 hours (male C57BL/6J mice [1]): significantly suppressed; intakes of the feed at 3 and 6 hours (male C57BL/6J mice [7]; 3 mg/kg intraperitoneally, mice fasted for 16 hours): significantly suppressed; antifeedant activity via peripheral administration (male C57BL/6J mice [7]; peripheral administration): expresses an antifeedant activity
PEG30k(SMCC)-NMU-8 | significantly suppressed | significantly suppressed | significantly suppressed | significantly suppressed | significantly suppressed | 
PEG30k(ACP)-NMU-8 | significantly suppressed |  |  |  |  | 
PEG30k(KMUS)-NMU-8 |  |  |  | significantly suppressed | significantly suppressed | 
PEG30k(EMCS)-NMU-8 |  |  |  | significantly suppressed | significantly suppressed | 
